# Results: paper PMC6106931 (Alzheimer's Research & Therapy, 2018)
# What was measured:
# [1] = Cognitive evaluations (CANTAB Elect, RBANS, CDR-SB, MMSE), Study ALZ1005; assay type: in vivo, human; conditions: Caucasian early AD
# Protocol: When multiple assessments were performed at the same visit by independent raters, the sequential order of testing was RBANS first followed by CDR, MMSE, and CANTAB Elect, and if raters for RBANS and CDR were the same, then CDR was performed prior to RBANS.
# The CDR assessed three domains of cognition (memory, orientation, judgment/problem solving) and three domains of function (community affairs, home/hobbies, personal care) using structured interviews of both the patient and a companion/informant by a trained rater and scored using a standard methodology. CDR global score for the six domains range from 0 to 3 with 0 indicating no dementia and 3 indicating severe dementia. It can be summed to obtain CDR Sum of Boxes (CDR-SB) with scores ranging from 0 to 18. CDR and CDR-Japanese version global score has been used in AD trials as a global measure of disease progression.
# RBANS battery includes 12 subsets that measure 5 indices; the Digit Span and Coding subtests measure Attention, the Picture Naming and Semantic Fluency subtests measure Language, the Figure Copy and Line Orientation subtests measure Visuospatial/Construction, List Learning and Store Memory subtests measure Immediate Memory, and List Recall, List Recognition, Store Memory and Figure Recall measure Delayed Memory. RBANS has been used in multinational AD clinical trials.
# The CANTAB test battery consists of paired associated learning (PAL), reaction time (RTI) and spatial working memory (SWM). Performance in this test battery is associated with pathologic Aβ and tau levels and enables identification of individuals with memory impairment who are likely to develop AD and those with questionable dementia. Scores have a sensitivity of 0.83 and a specificity of 0.82 when differentiating individuals with MCI from healthy older adults. The PAL test assesses visuospatial episodic memory and the outcome measure is the adjusted number of errors committed at the 6-pattern stage. The test-retest reliability for PAL is 0.75 in MCI and 0.85 in AD. The RTI test assesses psychomotor processing speed. […] The test-retest reliability is 0.68 in MCI and 0.72 in AD. The SWM test assesses working memory and executive function. The outcome measure is the number errors made during performing of the task. The test-retest reliability is 0.55 in MCI and 0.68 in AD.
# MMSE rates subjects on orientation, registration, attention, calculation, recall and language. The maximum score is 30, and lower the score the greater the impairment.
# [2] = parameters: method as in PMID 29067308; conditions: ALZ1002 Study; CV = 19%; cited from earlier work
# [3] = cited from earlier work
# [4] = human, in vivo, 4 weeks
# Protocol: Safety and tolerability were assessed during the study by recording adverse events (AEs), clinically significant abnormalities, clinical laboratory tests, ECG, and vital signs and by performing physical, neurological, and MRI examinations. All enrolled participants were included in the safety analysis population.
structure (smiles),measurement,setting,value
C[C@@]1(c2cc(NC(=O)c3ccc(C#N)cn3)ccc2F)C=CSC(N)=N1 [atabecestat],"CDR-SB Total Score, change from baseline at day 28, Diff. of LS Means (SE) vs placebo",[1]; 10 mg,^-0.07 (0.305)
same,"CDR-SB Total Score, change from baseline at day 28, LS Mean",[1]; 10 mg,^-0.04
same,"CDR-SB Total Score, change from baseline at day 28, Mean (SD)",[1]; 10 mg,^-0.04 (0.660)
same,"MMSE Total Score, change from baseline at day 28, Diff. of LS Means (SE) vs placebo",[1]; 10 mg,^-1.33 (0.906)
same,"MMSE Total Score, change from baseline at day 28, LS Mean",[1]; 10 mg,^-0.76
same,"MMSE Total Score, change from baseline at day 28, Mean (SD)",[1]; 10 mg,^-0.40 (2.971)
same,"PAL Total Errors 6 Shapes Adjusted, change from baseline at day 28, Diff. of LS Means (SE) vs placebo",[1]; 10 mg,^-1.14 (2.086)
same,"PAL Total Errors 6 Shapes Adjusted, change from baseline at day 28, LS Mean",[1]; 10 mg,^0.87
same,"RBANS Total Scale, change from baseline at day 28, Diff. of LS Means (SE) vs placebo",[1]; 10 mg,^-4.39 (2.762)
same,"RBANS Total Scale, change from baseline at day 28, LS Mean",[1]; 10 mg,^0.07
same,"RBANS Total Scale, change from baseline at day 28, Mean (SD)",[1]; 10 mg,^0.33 (4.995)
same,"RTI Simple Reaction Time Mean, change from baseline at day 28, Diff. of LS Means (SE) vs placebo",[1]; 10 mg,^41.89 (23.130)
same,"RTI Simple Reaction Time Mean, change from baseline at day 28, LS Mean",[1]; 10 mg,^14.30
same,"SWM Between Errors 4-8 Boxes, change from baseline at day 28, Diff. of LS Means (SE) vs placebo",[1]; 10 mg,^0.06 (2.631)
same,"SWM Between Errors 4-8 Boxes, change from baseline at day 28, LS Mean",[1]; 10 mg,^1.48
same,"CDR-SB Total Score, change from baseline at day 28, Diff. of LS Means (SE) vs placebo",[1]; 50 mg,^0.51 (0.300)
same,"CDR-SB Total Score, change from baseline at day 28, LS Mean",[1]; 50 mg,^0.54
same,"CDR-SB Total Score, change from baseline at day 28, Mean (SD)",[1]; 50 mg,^0.54 (1.082)
same,"MMSE Total Score, change from baseline at day 28, Diff. of LS Means (SE) vs placebo",[1]; 50 mg,^-1.29 (0.880)
same,"MMSE Total Score, change from baseline at day 28, LS Mean",[1]; 50 mg,^-0.73
same,"MMSE Total Score, change from baseline at day 28, Mean (SD)",[1]; 50 mg,^-0.75 (3.317)
same,"PAL Total Errors 6 Shapes Adjusted, change from baseline at day 28, Diff. of LS Means (SE) vs placebo",[1]; 50 mg,^-1.44 (2.037)
same,"PAL Total Errors 6 Shapes Adjusted, change from baseline at day 28, LS Mean",[1]; 50 mg,^0.57
same,"RBANS Total Scale, change from baseline at day 28, Diff. of LS Means (SE) vs placebo",[1]; 50 mg,^-2.48 (2.705)
same,"RBANS Total Scale, change from baseline at day 28, LS Mean",[1]; 50 mg,^1.97
same,"RBANS Total Scale, change from baseline at day 28, Mean (SD)",[1]; 50 mg,^1.88 (10.392)
same,"RTI Simple Reaction Time Mean, change from baseline at day 28, Diff. of LS Means (SE) vs placebo",[1]; 50 mg,^33.19 (23.367)
same,"RTI Simple Reaction Time Mean, change from baseline at day 28, LS Mean",[1]; 50 mg,^5.60
same,"SWM Between Errors 4-8 Boxes, change from baseline at day 28, Diff. of LS Means (SE) vs placebo",[1]; 50 mg,^-0.48 (2.693)
same,"SWM Between Errors 4-8 Boxes, change from baseline at day 28, LS Mean",[1]; 50 mg,^0.93
same,"RBANS total scale, MMSE total and CDR Sum of Boxes change from baseline at day 28",[1]; any treatment group,no meaningful change
same,"CANTAB (PAL, RTI, SWM) changes from baseline at day 28",[1]; atabecestat treatment groups,No meaningful changes
same,"oral clearance (CL/F), model-based estimate",[2],10.5 L/h
same,plasma atabecestat free fraction,[3],6%
same,TEAE incidence (genital herpes),[4],5.6%
